Molecular target: SV2A (Homo sapiens, UniProt Q7L0J3)
Assay: SV2A binding in vitro, displacement of levetiracetam

Chain of SV2A (Q7L0J3 whole entry, species assumed): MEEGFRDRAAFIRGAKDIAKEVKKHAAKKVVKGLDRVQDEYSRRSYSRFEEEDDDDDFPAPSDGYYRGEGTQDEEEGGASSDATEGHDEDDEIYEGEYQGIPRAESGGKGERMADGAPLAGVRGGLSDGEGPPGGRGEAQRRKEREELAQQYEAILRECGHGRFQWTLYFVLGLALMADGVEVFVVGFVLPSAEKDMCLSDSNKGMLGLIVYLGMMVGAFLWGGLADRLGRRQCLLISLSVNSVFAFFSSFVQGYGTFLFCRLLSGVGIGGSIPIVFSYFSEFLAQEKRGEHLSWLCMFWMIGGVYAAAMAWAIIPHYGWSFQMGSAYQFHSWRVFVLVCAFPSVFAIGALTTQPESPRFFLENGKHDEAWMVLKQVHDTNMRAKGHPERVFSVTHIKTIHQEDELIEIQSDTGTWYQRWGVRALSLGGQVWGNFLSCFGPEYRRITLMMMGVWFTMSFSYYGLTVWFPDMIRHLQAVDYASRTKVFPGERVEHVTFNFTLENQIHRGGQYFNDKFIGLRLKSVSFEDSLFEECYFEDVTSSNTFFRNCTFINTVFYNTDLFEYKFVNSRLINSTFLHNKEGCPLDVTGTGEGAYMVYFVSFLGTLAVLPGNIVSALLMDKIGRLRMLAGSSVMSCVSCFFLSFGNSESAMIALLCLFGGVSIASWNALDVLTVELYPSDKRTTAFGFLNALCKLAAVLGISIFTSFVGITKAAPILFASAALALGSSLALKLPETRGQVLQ

O=C1C[C@H](c2cc(F)c(F)c(F)c2)CN1Cn1ncnc1Cl [compound of example 1, (4R)-1-[(5-chloro-1H-1,2,4-triazol-1-yl)methyl]-4-(3,4,5-trifluorophenyl)pyrrolidin-2-one]
affinity of binding to SV2A (levetiracetam site): high affinity | displacement of the binding of levetiracetam to SV2A (in vitro): competitively displaces

Source: US20240325353A1, “COMPOUND FOR TREATMENT OF COGNITIVE DISORDERS” (Syndesi Therapeutics SA, priority 2021, published 2024)
